The structures appear in SMILES notation.

In one series the target is ALK (Homo sapiens, UniProt Q9UM73). Description: Evaluation of the inhibitory activity of kinase. In kind it is biochemical. As to the method:
(§1) The samples of the salt obtained in Preparation Example 2 were tested according to the evaluation of the inhibitory activity of kinase described under Biological Assessment of the Patent Application No. WO 2011/147066.

For a further series, the target named is BTK (Homo sapiens, UniProt Q06187). Description: Evaluation of the inhibitory activity of kinase. In kind it is biochemical. As to the method: as §1
For the next series, the target named is MET (Homo sapiens, UniProt P08581). Description: Evaluation of the inhibitory activity of kinase. In kind it is biochemical. As to the method:
as §1

The target of the next series is PDGFRα (Homo sapiens, UniProt P16234). Description: Evaluation of the inhibitory activity of kinase. In kind it is biochemical. As for the experimental part: as §1
Sequence of PDGFRα (P16234 24-1089): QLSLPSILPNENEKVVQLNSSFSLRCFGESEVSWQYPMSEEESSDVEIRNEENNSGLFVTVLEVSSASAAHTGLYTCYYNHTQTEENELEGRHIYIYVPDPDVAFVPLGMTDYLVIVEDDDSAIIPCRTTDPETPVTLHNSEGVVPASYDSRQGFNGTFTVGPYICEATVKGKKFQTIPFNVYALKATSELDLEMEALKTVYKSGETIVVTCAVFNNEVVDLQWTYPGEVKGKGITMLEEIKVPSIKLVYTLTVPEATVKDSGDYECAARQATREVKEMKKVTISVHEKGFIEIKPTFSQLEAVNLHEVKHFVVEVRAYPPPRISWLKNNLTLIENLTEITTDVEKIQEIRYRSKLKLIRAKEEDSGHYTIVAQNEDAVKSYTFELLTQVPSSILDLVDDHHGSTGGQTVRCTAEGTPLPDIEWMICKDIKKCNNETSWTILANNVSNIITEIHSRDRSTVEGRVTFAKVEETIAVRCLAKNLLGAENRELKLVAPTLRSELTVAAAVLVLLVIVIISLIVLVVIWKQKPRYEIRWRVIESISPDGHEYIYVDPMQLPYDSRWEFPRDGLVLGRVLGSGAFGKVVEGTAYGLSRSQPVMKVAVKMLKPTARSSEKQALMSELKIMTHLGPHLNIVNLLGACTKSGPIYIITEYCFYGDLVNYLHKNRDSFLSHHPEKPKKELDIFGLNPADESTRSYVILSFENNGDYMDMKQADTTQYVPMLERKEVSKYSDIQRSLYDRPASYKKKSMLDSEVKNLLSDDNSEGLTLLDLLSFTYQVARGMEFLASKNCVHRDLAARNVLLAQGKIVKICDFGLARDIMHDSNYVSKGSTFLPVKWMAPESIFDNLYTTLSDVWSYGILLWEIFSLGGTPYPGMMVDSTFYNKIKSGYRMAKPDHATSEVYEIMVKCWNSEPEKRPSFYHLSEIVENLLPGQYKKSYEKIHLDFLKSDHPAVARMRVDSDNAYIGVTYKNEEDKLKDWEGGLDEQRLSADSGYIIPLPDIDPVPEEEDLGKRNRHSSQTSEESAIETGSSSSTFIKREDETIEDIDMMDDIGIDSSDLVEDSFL
The target in another series is VEGFR2 (Homo sapiens, UniProt P35968). Description: Evaluation of the inhibitory activity of kinase. In kind it is biochemical. As to the method: as §1
Sequence of VEGFR2 (P35968 20-1356): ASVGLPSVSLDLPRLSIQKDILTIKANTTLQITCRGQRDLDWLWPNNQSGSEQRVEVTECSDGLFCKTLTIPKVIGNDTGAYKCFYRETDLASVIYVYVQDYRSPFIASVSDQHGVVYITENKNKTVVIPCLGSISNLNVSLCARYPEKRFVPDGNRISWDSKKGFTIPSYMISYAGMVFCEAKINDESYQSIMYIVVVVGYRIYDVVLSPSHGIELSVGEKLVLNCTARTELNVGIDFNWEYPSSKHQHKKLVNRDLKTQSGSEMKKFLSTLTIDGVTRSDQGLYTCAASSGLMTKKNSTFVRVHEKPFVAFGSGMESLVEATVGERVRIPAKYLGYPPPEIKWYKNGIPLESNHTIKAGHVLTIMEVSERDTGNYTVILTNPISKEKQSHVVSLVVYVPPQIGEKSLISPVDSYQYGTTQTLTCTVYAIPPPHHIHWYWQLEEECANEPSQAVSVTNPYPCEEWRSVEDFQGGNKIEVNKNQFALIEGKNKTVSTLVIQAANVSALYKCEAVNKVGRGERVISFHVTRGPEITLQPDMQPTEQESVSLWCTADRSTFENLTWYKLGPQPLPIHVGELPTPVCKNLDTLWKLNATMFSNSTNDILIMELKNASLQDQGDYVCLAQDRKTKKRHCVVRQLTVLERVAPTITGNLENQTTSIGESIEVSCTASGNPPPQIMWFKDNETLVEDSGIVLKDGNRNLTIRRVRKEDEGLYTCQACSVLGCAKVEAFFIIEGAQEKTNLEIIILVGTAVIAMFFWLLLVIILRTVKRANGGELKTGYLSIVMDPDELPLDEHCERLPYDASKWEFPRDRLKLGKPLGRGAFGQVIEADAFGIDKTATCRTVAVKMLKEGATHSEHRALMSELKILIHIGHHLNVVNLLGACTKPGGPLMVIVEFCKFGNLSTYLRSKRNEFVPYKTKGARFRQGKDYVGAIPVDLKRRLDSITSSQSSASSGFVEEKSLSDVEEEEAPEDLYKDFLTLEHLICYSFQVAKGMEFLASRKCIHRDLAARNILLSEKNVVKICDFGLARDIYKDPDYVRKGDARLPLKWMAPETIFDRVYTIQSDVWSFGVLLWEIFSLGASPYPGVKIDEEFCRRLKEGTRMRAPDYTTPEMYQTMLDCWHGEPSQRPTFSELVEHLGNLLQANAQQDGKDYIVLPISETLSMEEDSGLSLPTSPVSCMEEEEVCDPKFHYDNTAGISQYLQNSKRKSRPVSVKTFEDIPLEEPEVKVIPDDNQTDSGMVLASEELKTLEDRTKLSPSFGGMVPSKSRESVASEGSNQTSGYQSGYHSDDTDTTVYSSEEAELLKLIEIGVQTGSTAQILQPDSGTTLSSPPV
Another series addresses c-KIT (Homo sapiens, UniProt P10721). Description: Evaluation of the inhibitory activity of kinase. In kind it is biochemical. As for the experimental part:
as §1

Series [1] relates to MV4-11 (FLT3-ITD mutation) subcutaneous tumor. Put plainly: In-vivo anti-tumor test, MV4-11 subcutaneous tumor model. As to conditions: orally administered once daily for 21 days. As to the method: (§2) According to the in-vivo anti-tumor test described under Biological Assessment of the Patent Application No. WO 2011/147066, the samples of the salt obtained in Preparation Example 2 were tested (specifically for FLT3-ITD acute myeloid leukemia, non-small cell lung cancer with EGFR activating mutation, and Ph-positive chronic myeloid leukemia, respectively).

Series [2] has as its system human non-small cell lung cancer HCC827. Put plainly: In-vivo anti-tumor test, non-small cell lung cancer model. To be noted: orally administered once daily for 30 days. As to the method:
as §2

A short description of series [3]: API-excipient compatibility test. In kind it is physicochemical. As to conditions: 14 days and 28 or 30 days; illumination, 60° C., high humidity; maximum single impurity, total impurity, color. As for the experimental part: The active ingredient (compound of Formula B) was mixed evenly with various excipients mentioned in the present application respectively, and put in 10-ml injection vials. The injection vials were stored for 14 days and 28 days or 30 days under the conditions of an illumination of 4500 lux±500 lux/peripheral humidity, a high temperature of 60° C.±2° C./peripheral humidity, a high humidity of 90%±5% RH, and a temperature of 25° C.±2° C. respectively to detect the impurity content, so as to test the compatibility of the active ingredient with various excipients.

Sequence of ALK (Q9UM73 19-1620): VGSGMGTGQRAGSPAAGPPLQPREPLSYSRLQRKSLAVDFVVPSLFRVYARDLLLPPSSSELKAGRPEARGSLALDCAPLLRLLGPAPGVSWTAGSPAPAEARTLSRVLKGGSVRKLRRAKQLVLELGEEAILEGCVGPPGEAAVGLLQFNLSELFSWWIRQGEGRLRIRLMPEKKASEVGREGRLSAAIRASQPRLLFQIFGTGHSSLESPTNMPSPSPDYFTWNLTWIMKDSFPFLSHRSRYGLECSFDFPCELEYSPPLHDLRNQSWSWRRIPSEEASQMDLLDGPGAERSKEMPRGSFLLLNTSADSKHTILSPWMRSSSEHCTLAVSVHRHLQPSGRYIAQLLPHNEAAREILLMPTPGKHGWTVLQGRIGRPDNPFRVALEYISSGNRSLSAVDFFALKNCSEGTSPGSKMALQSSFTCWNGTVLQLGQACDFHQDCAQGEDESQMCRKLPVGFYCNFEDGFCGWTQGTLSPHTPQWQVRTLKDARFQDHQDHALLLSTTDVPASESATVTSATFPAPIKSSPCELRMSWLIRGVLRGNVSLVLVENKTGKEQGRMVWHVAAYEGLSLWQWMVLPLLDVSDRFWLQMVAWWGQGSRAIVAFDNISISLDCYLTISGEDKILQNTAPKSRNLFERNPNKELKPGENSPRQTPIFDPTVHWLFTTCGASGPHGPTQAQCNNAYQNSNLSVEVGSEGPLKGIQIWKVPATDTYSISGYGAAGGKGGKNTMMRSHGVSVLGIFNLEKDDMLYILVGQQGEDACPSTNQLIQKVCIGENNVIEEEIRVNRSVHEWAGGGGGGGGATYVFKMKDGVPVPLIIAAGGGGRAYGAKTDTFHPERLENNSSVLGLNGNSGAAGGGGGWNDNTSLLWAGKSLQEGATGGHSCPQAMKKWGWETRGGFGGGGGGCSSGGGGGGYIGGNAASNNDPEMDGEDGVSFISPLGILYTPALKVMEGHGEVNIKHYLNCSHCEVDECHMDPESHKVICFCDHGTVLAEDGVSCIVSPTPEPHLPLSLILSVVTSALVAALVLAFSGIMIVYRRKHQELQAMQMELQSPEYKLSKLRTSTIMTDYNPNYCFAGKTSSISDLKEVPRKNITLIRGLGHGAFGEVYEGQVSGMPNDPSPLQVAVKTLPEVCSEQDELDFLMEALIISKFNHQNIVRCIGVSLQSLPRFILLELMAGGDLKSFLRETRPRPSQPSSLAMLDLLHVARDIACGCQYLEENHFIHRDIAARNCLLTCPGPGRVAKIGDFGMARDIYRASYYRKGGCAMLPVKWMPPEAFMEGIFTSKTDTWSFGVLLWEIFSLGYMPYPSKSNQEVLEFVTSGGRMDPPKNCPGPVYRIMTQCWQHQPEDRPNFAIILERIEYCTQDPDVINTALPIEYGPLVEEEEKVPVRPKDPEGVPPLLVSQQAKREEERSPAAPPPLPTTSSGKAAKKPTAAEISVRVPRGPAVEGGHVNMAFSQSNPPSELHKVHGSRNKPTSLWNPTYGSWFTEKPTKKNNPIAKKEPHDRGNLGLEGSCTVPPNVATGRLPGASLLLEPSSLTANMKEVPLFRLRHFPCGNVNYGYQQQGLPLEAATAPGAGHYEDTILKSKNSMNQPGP
Sequence of c-KIT (P10721 26-976): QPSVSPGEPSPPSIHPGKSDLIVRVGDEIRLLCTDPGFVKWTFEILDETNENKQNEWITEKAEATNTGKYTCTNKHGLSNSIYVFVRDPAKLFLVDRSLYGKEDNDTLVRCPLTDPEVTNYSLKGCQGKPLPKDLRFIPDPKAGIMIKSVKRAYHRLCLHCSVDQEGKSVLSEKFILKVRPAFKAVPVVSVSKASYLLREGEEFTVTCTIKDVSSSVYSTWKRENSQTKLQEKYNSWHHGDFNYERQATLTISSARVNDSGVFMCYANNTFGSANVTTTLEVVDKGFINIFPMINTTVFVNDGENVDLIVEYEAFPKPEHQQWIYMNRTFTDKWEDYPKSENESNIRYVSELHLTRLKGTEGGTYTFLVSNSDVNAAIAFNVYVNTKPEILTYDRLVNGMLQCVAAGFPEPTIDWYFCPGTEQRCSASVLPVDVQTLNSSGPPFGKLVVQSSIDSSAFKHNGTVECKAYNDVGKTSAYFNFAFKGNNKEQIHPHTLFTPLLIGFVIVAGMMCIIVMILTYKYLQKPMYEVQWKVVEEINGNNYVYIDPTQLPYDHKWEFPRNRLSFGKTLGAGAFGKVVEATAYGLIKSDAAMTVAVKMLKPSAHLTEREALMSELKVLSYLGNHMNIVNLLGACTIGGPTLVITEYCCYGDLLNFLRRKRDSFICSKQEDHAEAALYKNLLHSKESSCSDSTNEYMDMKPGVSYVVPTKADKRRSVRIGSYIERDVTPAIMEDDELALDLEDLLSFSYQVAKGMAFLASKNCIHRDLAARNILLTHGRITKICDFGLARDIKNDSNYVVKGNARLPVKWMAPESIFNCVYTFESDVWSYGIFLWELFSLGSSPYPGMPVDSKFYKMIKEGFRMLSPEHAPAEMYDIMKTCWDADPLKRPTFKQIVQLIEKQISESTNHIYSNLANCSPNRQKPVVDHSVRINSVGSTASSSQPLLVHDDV

For the molecule `CC(C)n1c(Nc2cccnc2)nc2cnc(Nc3ccc(N4CCN(C)CC4)cc3)nc21` [Preparation Example 2], the “inhibiting the activity of kinase” value on ALK, against BTK, against MET, against PDGFRα, at VEGFR2 and against c-KIT was “capable of inhibiting” each time. Also, the “effect on tumor growth” value is listed as “completely inhibit the tumor growth” in [1] (5 mg/kg), “complete tumor regression” in [1] (10 mg/kg) and “complete tumor regression” in series [1] (20 mg/kg). In addition, the “effect on tumor (compared with the initial tumor)” value in [2] (7.5 mg/kg) is “tumor shrinkage”; in series [2] (15 mg/kg) it was “tumor shrinkage”; in series [2] (30 mg/kg), “almost complete tumor regression”. Besides, the “effect on growth of HCC827, dose dependence” value in [2] (7.5, 15 and 30 mg/kg) was “dose-dependently inhibit the growth”. For the same molecule, the “compatibility of the active ingredient with various excipients” value in series [3] was “good compatibility”.

Values taken from patent publication US20240115575A1, “PHARMACEUTICAL COMPOSITION OF MULTI-TARGET PROTEIN KINASE INHIBITORS, AND USE THEREOF” (CSPC Zhongqi Pharmaceutical Technology (Shijiazhuang) Co., …, priority 2020, published 2024).
